Source: US20240140970A1, “A […], AND PREPARATION METHOD AND USE THEREOF” (ASCENTAWITS PHARMACEUTICALS, LTD., priority 2021, published 2024)
Several values for one entry are separate records, joined by “and”; a condition that tells them apart may be missing. Equal entries are not always repeated.

What was measured:
[1] = Stability of AST-2660 in human plasma at −20° C. and −70° C. for one month (LC-MS/MS); format: in vitro ADME
Protocol: (§1) The detection method established in example 4 was used to detect the content of AST-2660 in the human plasma to be tested.
(§2) Matrix: the mixed normal human plasma containing anticoagulant (K2 EDTA) • a: the internal standard working solution: AST-2660-D8 was taken, added with methanol, and diluted to prepare a solution containing about 100 ng per 1 ml. • b: the solution to be tested (no internal standard compound was added to the solution to be tested at this time): it was obtained by taking a blood sample to be tested. • c: the standard working solution (no internal standard compound was added to the standard working solution at this time): an appropriate amount of AST-2660 was taken and accurately weighed, dissolved with methanol, and diluted to prepare a solution containing about 1.0 mg per 1 ml, which was used as the standard working stock solution. An appropriate amount of the standard working stock solution was taken, added with the matrix and diluted to prepare standard working solutions with different concentrations containing about 200 ng, 160 ng, 100 ng, 50 ng, 10 ng, 2.0 ng, 1.0 ng and 0.5 ng per 1 ml, respectively. (The solution was stored at −70° C.) • d: the quality control sample solution: an appropriate amount of AST-2660 was taken and accurately weighed, dissolved with methanol, and diluted to prepare a solution containing about 10 μg per 1 ml, which was used as the quality control working stock solution. An appropriate amount of the quality control working stock solution was taken, added with matrix to prepare quality control working solutions with different concentrations containing about 150 ng, 60 ng, 15 ng, 1.5 ng and 0.5 ng per 1 ml. (The solution was stored at −70° C.)
(§3) The solution to be tested, the standard working solution and the quality control sample solution were thawed at room temperature and mixed uniformly. 100 μl of the above solution was respectively taken, added with 20 μl of the internal standard and 500 μl of methanol, and vortexed for 3 minutes to mix uniformly, and then centrifuged for 10 minutes at 2143 rcf. 450 μl of the supernatant was taken and dried, and 150 μl of methanol was added for redissolution, and sonicated. Then the plates were centrifuged for 3 minutes at 4° C. It was obtained by taking […] of supernatant.
(§4) Liquid phase conditions: A SHARC 1, 3 μm, 2.1*50 mm or chromatograph column with equivalent performance was used; the mobile phase was a methanol solution comprising low content of ammonium acetate; the mobile phase B was acetonitrile; the gradient elution was performed according to the following table, column temperature: 20° C.; injection volume: 5 μl.
(§5) Mass spectrometric conditions: electrospray ion source with negative ion scanning mode; spray potential: −4500 V; ion source temperature: 500° C.; collision energy (CE): −22 eV; declustering potential (DP): −55V; entrance potential (EP): −10V; collision chamber exit potential (CXP): −16V; dwell time: 100 ms; high purity nitrogen was used for all gases; AST-2660 ions pairs: m/z 147.0→m/z 62.9; the internal standard AST-2660-D8 ion pairs: m/z 155.0→m/z 62.9.
(§6) The AST-2660 standard working solution, blank sample, zero concentration sample, sample solution to be tested and quality control sample solution with different concentrations after extraction were respectively taken and injected into LC-MS/MS for detection.
(§7) Calculation results: the relationship function y=f (x) of the ratio of the peak area of the AST-2660 to that of the internal standard was obtained from AST-2660 standard working solutions with different concentrations. The ratio of the peak area of the AST-2660 to that of the internal standard was determined from the solution to be tested after extraction, and substituted into the relationship function y=f (x) to calculate the concentration of the metabolite II in the solution to be tested.

[2] = Freeze/thaw stability of AST-2660 in human plasma (LC-MS/MS); format: in vitro ADME
Protocol: as §1, §2, §3, §4, §5, §6, §7

[3] = Stability of treated (extracted) human plasma samples of AST-2660 at 4° C. (LC-MS/MS); format: physicochemical; conditions: stored for 54 hours at 4° C.
Protocol: as §1
Matrix: the mixed normal human plasma containing anticoagulant (K2 EDTA) • a: the internal standard working solution: AST-2660-D8 was taken, added with methanol, and diluted to prepare a solution containing about 100 ng per 1 ml. • b: the solution to be tested (no internal standard compound was added to the solution to be tested at this time): it was obtained by taking a blood sample to be tested. • c: the standard working solution (no internal standard compound was added to the standard working solution at this time): an appropriate amount of AST-2660 was taken and accurately weighed, dissolved with methanol, and diluted to prepare a solution containing about 1.0 mg per 1 ml, which was used as the standard working stock solution. […]
as §7

[4] = QC1 nominal 1.50 ng/ml, 28 days at −20° C.
[5] = QC1 nominal 1.50 ng/ml, 28 days at −70° C.
[6] = QC4 nominal 150 ng/ml, 28 days at −20° C.
[7] = QC4 nominal 150 ng/ml, 28 days at −70° C.
[8] = DilQC (10-fold dilution) nominal 1500 ng/ml, 5 freeze/thaw cycles at −20° C.
[9] = DilQC (10-fold dilution) nominal 1500 ng/ml, 5 freeze/thaw cycles at −70° C.
[10] = QC1 nominal 1.50 ng/ml, 5 freeze/thaw cycles at −20° C.
[11] = QC1 nominal 1.50 ng/ml, 5 freeze/thaw cycles at −70° C.
[12] = QC4 nominal 150 ng/ml, 5 freeze/thaw cycles at −20° C.
[13] = QC4 nominal 150 ng/ml, 5 freeze/thaw cycles at −70° C.

SMILES: O=P([O-])(N1CC1)N1CC1.[Na+] [AST-2660]
- change of AST-2660 content (in words) ([1]; 28 days of storage at −20° C.): reduced significantly
- change of AST-2660 content (in words) ([1]; 28 days of storage at −70° C.): almost no reduction
- RE (%) vs nominal ([1]; DilQC (10-fold dilution) nominal 1500 ng/ml, 28 days at −20° C.): −32.5%
- RE (%) vs nominal ([1]; DilQC (10-fold dilution) nominal 1500 ng/ml, 28 days at −70° C.): −6.2%
- AST-2660 concentration, Mean value [1, 4]: 1.11 ng/mL
- AST-2660 concentration, single replicates [1, 4]: 1.01 ng/mL and 1.03 ng/mL and 1.14 ng/mL and 1.25 ng/mL
- RE (%) vs nominal [1, 4]: −26.2%
- AST-2660 concentration, Mean value [1, 5]: 1.53 ng/mL
- AST-2660 concentration, single replicates [1, 5]: 1.52 ng/mL and 1.53 ng/mL and 1.59 ng/mL and 1.49 ng/mL
- RE (%) vs nominal [1, 5]: 2.2%
- AST-2660 concentration, Mean value [1, 6]: 146 ng/mL
- AST-2660 concentration, single replicates [1, 6]: 147 ng/mL and 141 ng/mL and 149 ng/mL and 145 ng/mL
- RE (%) vs nominal [1, 6]: −3.0%
- AST-2660 concentration, Mean value [1, 7]: 145 ng/mL
- AST-2660 concentration, single replicates [1, 7]: 142 ng/ml (2×) and 150 ng/ml and 145 ng/ml
- RE (%) vs nominal [1, 7]: −3.5%
- AST-2660 concentration, Mean value [2, 8]: 1288 ng/mL
- AST-2660 concentration, single replicates [2, 8]: 1310 ng/ml (2×) and 1250 ng/ml and 1280 ng/ml
- RE (%) vs nominal [2, 8]: −14.2%
- AST-2660 concentration, Mean value [2, 9]: 1540 ng/mL
- AST-2660 concentration, single replicates [2, 9]: 1650 ng/ml and 1500 ng/ml (2×) and 1510 ng/ml
- RE (%) vs nominal [2, 9]: 2.7%
- AST-2660 concentration, Mean value [2, 10]: 1.13 ng/mL
- AST-2660 concentration, single replicates [2, 10]: 1.13 ng/mL and 1.18 ng/mL and 1.14 ng/mL and 1.06 ng/mL
- RE (%) vs nominal [2, 10]: −24.8%
- AST-2660 concentration, Mean value [2, 11]: 1.60 ng/mL
- AST-2660 concentration, single replicates [2, 11]: 1.69 ng/mL and 1.72 ng/mL and 1.47 ng/mL and 1.51 ng/mL
- RE (%) vs nominal [2, 11]: 6.5%
- AST-2660 concentration, Mean value [2, 12]: 140 ng/mL
- AST-2660 concentration, single replicates [2, 12]: 136 ng/mL and 138 ng/mL and 152 ng/mL and 132 ng/mL
- RE (%) vs nominal [2, 12]: −7.0%
- AST-2660 concentration, Mean value [2, 13]: 149 ng/mL
- AST-2660 concentration, single replicates [2, 13]: 145 ng/ml and 148 ng/ml (2×) and 154 ng/ml
- RE (%) vs nominal [2, 13]: −0.8%
- change of AST-2660 content (in words) ([2]; freeze-thaw process from −20° C. to room temperature): reduced significantly
- change of AST-2660 content (in words) ([2]; freeze-thaw process from −70° C. to room temperature): almost no reduction
- stability of content (in words) [3]: stable
